The source of these data is ChEMBL document CHEMBL1144226, “Design and synthesis of 2-amino-isoxazolopyridines as Polo-like kinase inhibitors” (Bioorg Med Chem Lett, 2008).

One assay is described as follows: cells. The note with it: Homo sapiens, HCT-116.
For assay [1], the target named is Serine/threonine-protein kinase PLK3 (Homo sapiens, UniProt Q9H4B4).
Assay [2] has as its target Serine/threonine-protein kinase PLK2 (Homo sapiens, UniProt Q9NYY3).
Assay [3] addresses Serine/threonine-protein kinase PLK1 (Homo sapiens, UniProt P53350).
Another assay deals with HCT-116. The assay is described as follows: Effect on morphology in human HCT 116 cells assessed as monopolar spindle phenotype. It is filed as functional, cell-based.

pIC50: −log10 of the molar value. Calls of active or inactive are those of the source. The calls are words filed in the database; no cut-off is given here.

Serine/threonine-protein kinase PLK1, sequence (P53350 whole entry): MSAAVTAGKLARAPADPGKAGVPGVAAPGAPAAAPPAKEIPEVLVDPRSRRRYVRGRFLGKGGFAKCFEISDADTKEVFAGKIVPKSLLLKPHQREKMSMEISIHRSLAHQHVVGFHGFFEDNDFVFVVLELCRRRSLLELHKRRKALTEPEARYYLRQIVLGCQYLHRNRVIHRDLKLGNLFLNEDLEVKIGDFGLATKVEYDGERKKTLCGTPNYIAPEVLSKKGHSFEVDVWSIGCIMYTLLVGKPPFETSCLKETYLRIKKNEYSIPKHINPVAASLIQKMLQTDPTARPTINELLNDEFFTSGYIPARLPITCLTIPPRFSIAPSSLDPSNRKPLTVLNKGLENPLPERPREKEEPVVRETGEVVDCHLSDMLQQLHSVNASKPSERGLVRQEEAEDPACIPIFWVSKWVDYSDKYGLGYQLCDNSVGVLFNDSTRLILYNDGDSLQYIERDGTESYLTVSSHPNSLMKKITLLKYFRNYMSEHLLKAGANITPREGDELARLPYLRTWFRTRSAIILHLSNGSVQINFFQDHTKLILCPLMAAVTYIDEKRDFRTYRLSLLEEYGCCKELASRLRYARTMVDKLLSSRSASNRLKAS
Serine/threonine-protein kinase PLK3, sequence (Q9H4B4 whole entry): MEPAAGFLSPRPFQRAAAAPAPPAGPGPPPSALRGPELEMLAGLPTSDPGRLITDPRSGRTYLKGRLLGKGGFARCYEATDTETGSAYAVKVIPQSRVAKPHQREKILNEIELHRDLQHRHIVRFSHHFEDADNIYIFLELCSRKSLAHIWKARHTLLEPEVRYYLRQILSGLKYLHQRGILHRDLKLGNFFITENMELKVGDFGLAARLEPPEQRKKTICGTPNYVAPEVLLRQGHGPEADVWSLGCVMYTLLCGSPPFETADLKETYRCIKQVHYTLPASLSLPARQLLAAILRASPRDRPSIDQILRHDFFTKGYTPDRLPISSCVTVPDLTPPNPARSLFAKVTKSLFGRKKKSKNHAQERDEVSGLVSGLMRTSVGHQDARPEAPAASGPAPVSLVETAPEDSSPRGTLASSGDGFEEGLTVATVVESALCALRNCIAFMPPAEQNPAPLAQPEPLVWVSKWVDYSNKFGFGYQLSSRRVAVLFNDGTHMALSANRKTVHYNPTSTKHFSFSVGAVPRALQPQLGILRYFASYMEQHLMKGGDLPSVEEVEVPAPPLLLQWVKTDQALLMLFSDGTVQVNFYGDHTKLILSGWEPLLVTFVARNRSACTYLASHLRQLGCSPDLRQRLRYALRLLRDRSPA
Serine/threonine-protein kinase PLK2, sequence (Q9NYY3 whole entry): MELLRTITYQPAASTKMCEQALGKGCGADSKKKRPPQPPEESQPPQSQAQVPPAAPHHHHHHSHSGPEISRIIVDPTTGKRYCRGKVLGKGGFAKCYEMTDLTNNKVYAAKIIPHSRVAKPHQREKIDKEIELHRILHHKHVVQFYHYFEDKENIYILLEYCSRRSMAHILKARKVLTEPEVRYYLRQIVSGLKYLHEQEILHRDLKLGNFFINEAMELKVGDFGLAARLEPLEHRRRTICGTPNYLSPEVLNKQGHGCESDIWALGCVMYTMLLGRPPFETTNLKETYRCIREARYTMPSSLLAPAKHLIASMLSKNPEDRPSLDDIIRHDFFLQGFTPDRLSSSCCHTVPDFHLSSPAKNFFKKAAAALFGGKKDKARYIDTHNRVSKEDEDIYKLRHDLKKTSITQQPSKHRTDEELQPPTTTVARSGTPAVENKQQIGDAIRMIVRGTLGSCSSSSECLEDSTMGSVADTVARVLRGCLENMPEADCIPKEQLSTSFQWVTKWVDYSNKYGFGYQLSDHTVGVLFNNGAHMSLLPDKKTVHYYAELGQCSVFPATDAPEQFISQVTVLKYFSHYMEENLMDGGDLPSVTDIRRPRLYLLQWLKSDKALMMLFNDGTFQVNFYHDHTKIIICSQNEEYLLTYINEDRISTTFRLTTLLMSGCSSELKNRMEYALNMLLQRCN

Usually pIC50 stands for −log10 of the IC50, conventionally taken in molar units. The low end stands for a high IC50, the high end for a low IC50. `C[C@H](Nc1cc2c(-c3cccc(Cl)c3)noc2cn1)c1ccccc1` had a pIC50 in the assay “cells” of under 4.70. Regarding `C[C@H](Nc1cc2c(-c3ccc4c(c3)OCO4)noc2cn1)c1ccccc1`, the pIC50 in assay [1] is 7.62; in assay [2], 8.40; in assay [3] it was 6.67; in the assay “cells”, 5.14. `Cc1cccc(-c2noc3cnc(N[C@@H](C)c4ccccc4)cc23)c1` showed a pIC50 in the assay “cells” of 5.17. Take `C[C@H](Nc1cc2c(Cc3ccccc3)noc2cn1)c1ccccc1`: the pIC50 in assay [3] is under 4.70. Take `COc1ccc(-c2noc3cnc(N[C@@H](C)c4ccccc4)cc23)cc1OC`: the pIC50 in the assay “cells” was under 4.70. Molecule `Cc1cc(C)cc(-c2noc3cnc(N[C@@H](C)c4ccccc4)cc23)c1` had a pIC50 in the assay “cells” of under 4.70. The molecule `C[C@H](Nc1cc2c(-c3cc(Cl)cc(CCCO)c3)noc2cn1)c1ccccc1` gave a pIC50 in “cells” of 4.99. `Cc1ccc(-c2noc3cnc(N[C@@H](C)c4ccccc4)cc23)cc1`: the pIC50 in “cells” was under 4.70.

In the case of `C[C@H](Nc1cc2c(-c3ccccc3)noc2cn1)c1ccccc1`, the pIC50 in the assay “cells” was under 4.70. Regarding `C[C@H](Nc1cc2c(-c3cc(Cl)cc(CCC(N)=O)c3)noc2cn1)c1ccccc1`, in the assay on HCT-116, the result was Active. Moreover, the pIC50 in the assay “cells” is 5.08.
